Assays:
[1] = system: classical subtype glioblastoma multiform (626T); assay: cells; settings: Homo sapiens, 72 h
Method: (§1) Particularly, the cell growth inhibition effect was measured by WST-1 cell proliferation assay [http://www.roche-applied-science.com/PROD_INF/MANUALS/CELL_MAN/apoptosis—087—088.pdf]. The compound of formula 1 was loaded in a 384-well cell culture plate. Three types of glioblastoma multiform cell lines [proneural subtype (559T), mesenchymal subtype (592T), and classical subtype (626T)], normal human astrocytes (NHA), a lung cancer cell line (A549), and a glioblastoma multiform cell line (U87MG) were distributed in the plate at the density of 4.5×10^3 cells/well, and the medium was filled up to make 50 μl per well. At this time, the concentration of the solvent DMSO for the compound of formula 1 was no more than 0.2%. After culturing the cells for 72 hours, 5 mg/ml of WST-1 reagent was added by 5 μl per well, followed by reaction for 3˜4 hours. Then OD450 was measured to investigate the effect of the compound of formula 1 on cell proliferation.

[2] = system: glioblastoma multiform cell line (U87MG); assay: cells
Method: as §1

[3] = system: lung cancer cell line (A549); assay: cells; settings: Homo sapiens, A549, 72 h
Method: as §1

[4] = system: mesenchymal subtype glioblastoma multiform (592T); assay: cells; settings: Homo sapiens, 72 h
Method: as §1

[5] = system: proneural subtype glioblastoma multiform (559T); assay: cells; settings: Homo sapiens, 72 h
Method: as §1

[6] = system: normal human astrocytes (NHA); assay: WST-1 cell proliferation assay, NHA; type: cell-based
Method: as §1

[7] = system: GBM #3 glioblastoma multiform patient originated cells; assay: Neurosphere formation inhibition, GBM #3; type: cell-based, human; design: key: S: strong effect; I: intermediate effect; R: rare effect; settings: GBM #3, type A (proneural), Azathioprine 1 μM, duration 21 day
Method: (§2) Particularly, to investigate neurosphere formation, glioblastoma multiform cells were cultured for a certain time and the cells were distributed again in culture vessels, followed by additional culture. Then, the number of newly generated neurospheres was measured. First, the glioblastoma multiform patient originated cells were sub-cultured, which were distributed in a 96-well plate (20, 50, and 200 cells in 50 μl of culture medium/well). […] Then, the compound of formula 1 (azathioprine) and the compound of Comparative Example 1 (Temodal) were added to 50 μl of cell culture medium with the same concentrations as the above once a week, which were then cultured for 7˜23 days. When neurosphere was formed at least 50 μm in the control group not treated with the compound, the number of neurospheres in each well was counted to compare the neurosphere formation before and after the treatment of the compound of formula 1 (azathioprine) and the compound of Comparative Example 1 (Temodal).
(§3) The glioblastoma multiform cells used in this experiment were classified into 4 types, which are type A, type B, type C, and type D, according to the gene expression pattern. Methylation of MGMT (O6-me-G methyltransferase), the DNA repair protein, was confirmed in each cell line. […]

[8] = system: GBM #4 glioblastoma multiform patient originated cells; assay: Neurosphere formation inhibition, GBM #4; type: cell-based, human; design: key: S: strong effect; I: intermediate effect; R: rare effect; settings: GBM #4, type B (classical), Azathioprine 1 μM, duration 9 day
Method: as §2, §3

[9] = system: GBM #5 glioblastoma multiform patient originated cells; assay: Neurosphere formation inhibition, GBM #5; type: cell-based, human; design: key: S: strong effect; I: intermediate effect; R: rare effect; settings: GBM #5, type B (classical), Azathioprine 1 μM, duration 21 day
Method: as §2, §3

[10] = system: GBM #9 glioblastoma multiform patient originated cells; assay: Neurosphere formation inhibition, GBM #9; type: cell-based, human; design: key: S: strong effect; I: intermediate effect; R: rare effect; settings: GBM #9, type D (non-classified), Azathioprine 1 μM, duration 21 day
Method: as §2, §3

[11] = system: GBM #10 glioblastoma multiform patient originated cells; assay: Neurosphere formation inhibition, GBM #10; type: cell-based, human; design: key: S: strong effect; I: intermediate effect; R: rare effect; settings: GBM #10, type D (non-classified), Azathioprine 1 μM, duration 10 day
Method: as §2, §3

[12] = system: Hela Human adenocarcinoma; assay: Secondary cytotoxicity test, Hela; type: cell-based
Method: as §1
(§4) To investigate the cell growth inhibition effect of the compound of formula 1 of the present invention (azathioprine) in many different cell lines, secondary cytotoxicity test was performed with the cell lines listed in Table 5 by the same manner as described in Example 1.

[13] = system: NCI-H23 Human lung adenocarcinoma; assay: Secondary cytotoxicity test, NCI-H23; type: cell-based
Method: as §1, §4

HaCat Human keratinocyte = assay: Secondary cytotoxicity test, HaCat; type: cell-based
Method: as §1, §4

[14] = system: CCD986SK Human fibroblast; assay: Secondary cytotoxicity test, CCD986SK; type: cell-based; settings: CCD-986Sk
Method: as §1, §4

GBM (559T) cells = settings: GBM (559T) cell lysate, azathioprine 10 μM, 24 hours later, compared with before the treatment
[15] = read-out: Cell Growth Inhibition (% Inhibition)
[16] = Homo sapiens, U-87 MG, 72 h, read-out: Cell Growth Inhibition (% Inhibition)

`Cn1cnc([N+](=O)[O-])c1Sc1ncnc2nc[nH]c12` [Azathioprine, 6-(1-methyl-4-nitro-1H-imidazol-5-ylthio)-7H-purine] showed a GI50 [1] of 3.1 µM, an inhibition at 0.032 µM [1, 15] of 20.2% and an inhibition at 0.1 µM [1, 15] of 34.9%. For the same molecule, the inhibition at 0.32 µM [1, 15] was 30%, the inhibition at 1 µM [1, 15] was 42.5% and the inhibition at 3.2 µM [1, 15] was 61.8%. For the same molecule, the inhibition at 10 µM [1, 15] was 76.3%, the GI50 ([2]; Homo sapiens, U-87 MG, 72 h) was > 10 µM and the inhibition at 0.032 µM [2, 16] was 3.2%. The inhibition at 0.1 µM [2, 16] was -9.9%, the inhibition at 0.32 µM [2, 16] was 10.5% and the inhibition at 1 µM [2, 16] was 6.5%. The inhibition at 3.2 µM [2, 16] was 3.2%, the inhibition at 10 µM [2, 16] was -12.7% and the “cancer cell growth inhibition” value ([2]; U87MG, WST-1, up to 10 μM) was “did not inhibit the cancer cell growth”. For the same molecule, the GI50 [3] was > 10 µM, the inhibition at 0.032 µM [3, 15] was 6.7% and the inhibition at 0.1 µM [3, 15] was 15.3%. It also gave an inhibition at 0.32 µM [3, 15] of 21.5%, an inhibition at 1 µM [3, 15] of 24.2% and an inhibition at 3.2 µM [3, 15] of 26%. For the same molecule, the inhibition at 10 µM [3, 15] was 32%, the GI50 [4] was 5.5 µM and the inhibition at 0.032 µM [4, 15] was -3.9%. The inhibition at 0.1 µM [4, 15] was 2.1%, the inhibition at 0.32 µM [4, 15] was 8.3% and the inhibition at 1 µM [4, 15] was 22.6%. For the same molecule, the inhibition at 3.2 µM [4, 15] was 46%, the inhibition at 10 µM [4, 15] was 57.2% and the GI50 [5] was 1.3 µM. For the same molecule, the inhibition at 0.032 µM [5, 15] was -4.2%, the inhibition at 0.1 µM [5, 15] was 2.6% and the inhibition at 0.32 µM [5, 15] was 9.7%. It also gave an inhibition at 1 µM [5, 15] of 35.9%, an inhibition at 3.2 µM [5, 15] of 65.8% and an inhibition at 10 µM [5, 15] of 78.6%. For the same molecule, the inhibition at 0.032 µM ([6]; Homo sapiens, Astrocyte, 0.032 μM, 72 hours, read-out: Cell Growth Inhibition (% Inhibition)) was 1.9%, the inhibition at 0.1 µM ([6]; Homo sapiens, Astrocyte, 0.1 μM, 72 hours, read-out: Cell Growth Inhibition (% Inhibition)) was 5.9% and the inhibition at 0.32 µM ([6]; Homo sapiens, Astrocyte, 0.32 μM, 72 hours, read-out: Cell Growth Inhibition (% Inhibition)) was 11%. The inhibition at 1 µM ([6]; Homo sapiens, Astrocyte, 1.0 μM, 72 hours, read-out: Cell Growth Inhibition (% Inhibition)) was 8.3%, the inhibition at 3.2 µM ([6]; Homo sapiens, Astrocyte, 3.2 μM, 72 hours, read-out: Cell Growth Inhibition (% Inhibition)) was 10.5% and the inhibition at 10 µM ([6]; Homo sapiens, Astrocyte, 10 μM, 72 hours, read-out: Cell Growth Inhibition (% Inhibition)) was -2.4%. For the same molecule, the GI50 ([6]; Homo sapiens, Astrocyte, 72 hours) was > 10 µM, the “toxicity in normal astrocytes” value ([6]; WST-1, up to 10 μM) was “did not cause toxicity” and the “inhibition of neurosphere formation” value [7] was “S”. The “inhibition of neurosphere formation” value [8] was “S”, the “inhibition of neurosphere formation” value [9] was “S” and the “inhibition of neurosphere formation” value [10] was “S”. The “inhibition of neurosphere formation” value [11] was “S”, the IC50 [12] was 2.9 µM and the IC50 [13] was 4.9 µM. The IC50 (HaCat Human keratinocyte) was 6.3 µM, the IC50 [14] was > 10 µM and the “concentrations of azathioprine metabolites (TGMP, MeTIMP, MeTGMP, TIMP) in cell lysate” value (GBM (559T) cells) was “significantly raised”.

From patent US20150141439A1, “PHARMACEUTICAL COMPOSITION FOR THE PREVENTION OR TREATMENT OF BRAIN TUMOR OR TEMODAL RESISTANT GLIOBLASTOMA MULTIFORM COMPRISING AZATHIOPRINE AS AN ACTIVE INGREDIENT” (KOREA RESEARCH INSTITUTE OF CHEMICAL TECHNOLOGY, priority 2012, published 2015)
